Source: patent US10160724B2, “Tetrahydropyridine derivatives and their use as antibacterial agents” (Dong-A St Co., Ltd., priority 2016, dated 2018)
Converted amounts (≈) assume the structure as drawn. Where two headings read alike, the source gives them in different places.

Tests used:
Experiment in all cases: In vitro antibiotic activity, agar dilution method (Mueller-Hinton agar, NCCLS)
Assay type in all cases: cell-based
E. coli ATCC 25922 = conditions: Escherichia coli
Description: (§1) To measure the antibiotic activity of the compounds prepared by Examples, antibiotic activity test in vitro was performed by agar dilution method using Mueller-Hinton agar according to the NCCLS (National Committee for Clinical Laboratory Standards. 2000. Methods for dilution antimicrobial susceptibility tests for bacteria that grow aerobiocally. Approved standard, NCCLS document M7-M5, 5th ed, vol 20, no 2. National Committee for Clinical Laboratory Standards, Wayne, Pa.). The test strain was Escherichia coli (ATCC 25922), Klebsiella pneumonia (ATCC 29665) and Pseudomonas aeriginosa (PAO1).

K. pneumoniae ATCC 29665 = conditions: Klebsiella pneumoniae
Description: as §1

P. aeruginosa PAO1 = conditions: Pseudomonas aeruginosa
Description: as §1

[1] = ATCC25922, agar dilution, Mueller-Hinton agar, read-out: MIC for E. coli ATCC 25922
[2] = ATCC29665, agar dilution, Mueller-Hinton agar, read-out: MIC for K. pneumoniae ATCC 29665
[3] = PAO1, agar dilution, Mueller-Hinton agar, read-out: MIC for P. aeruginosa PAO1

| SMILES | MIC (E. coli ATCC 25922; ATCC25922, read-out: MIC for E. coli ATCC 25922) | MIC (K. pneumoniae ATCC 29665; ATCC29665, read-out: MIC for K. pneumoniae ATCC 29665) | MIC (P. aeruginosa PAO1; PAO1, read-out: MIC for P. aeruginosa PAO1) | MIC (E. coli ATCC 25922; [1]) | MIC (K. pneumoniae ATCC 29665; [2]) | MIC (P. aeruginosa PAO1; [3]) |
| --- | --- | --- | --- | --- | --- | --- |
| CN(C)c1ccc(C#Cc2ccc(C3=CCN(CCC(C)(C(=O)NO)S(C)(=O)=O)CC3)cc2)cc1 (stereo not drawn) [Example 1, 4-(4-(4-((4-(dimethylamino)phenyl)ethynyl)phenyl)-3,6-dihydropyridin-1(2H)-yl)-N-hydroxy-2-methyl-2-(methylsulfonyl)butanamide] | > 16 µg/mL | > 16 µg/mL | > 16 µg/mL |  |  |  |
| CC(CCN1CC=C(c2ccc(C#Cc3ccccc3)cc2)CC1)(C(=O)NO)S(C)(=O)=O (stereo not drawn) [Example 2, N-hydroxy-2-methyl-2-(methylsulfonyl)-4-(4-(4-(phenylethynyl)phenyl)-3,6-dihydropyridin-1(2H)-yl)butanamide] |  |  |  | < 1 µg/mL | 1 to 8 µg/mL (≈ 2.21 to 17.7 µM) | 1 to 8 µg/mL (≈ 2.21 to 17.7 µM) |
| COc1ccc(C#Cc2ccc(C3=CCN(CCC(C)(C(=O)NO)S(C)(=O)=O)CC3)cc2)cc1 (stereo not drawn) [Example 3, N-hydroxy-4-(4-(4-((4-methoxyphenyl)ethynyl)phenyl)-3,6-dihydropyridin-1(2H)-yl)-2-methyl-2-(methylsulfonyl)butanamide] |  |  |  | > 16 µg/mL | 1 to 8 µg/mL (≈ 2.07 to 16.6 µM) | > 16 µg/mL |
| CC(CCN1CC=C(c2ccc(C#CC3CC3)cc2)CC1)(C(=O)NO)S(C)(=O)=O (stereo not drawn) [Example 4, 4-(4-(4-(cyclopropylethynyl)phenyl)-3,6-dihydropyridin-1(2H)-yl)-N-hydroxy-2-methyl-2-(methylsulfonyl)butanamide] |  |  |  | < 1 µg/mL | < 1 µg/mL | 1 to 8 µg/mL (≈ 2.4 to 19.2 µM) |
| CC(CCN1CC=C(c2ccc(C#CCCO)cc2)CC1)(C(=O)NO)S(C)(=O)=O (stereo not drawn) [Example 5, N-hydroxy-4-(4-(4-(4-hydroxybut-1-yn-1-yl)phenyl)-3,6-dihydropyridin-1(2H)-yl)-2-methyl-2-(methylsulfonyl)butanamide] |  |  |  | 1 to 8 µg/mL (≈ 2.38 to 19 µM) | 8 to 16 µg/mL (≈ 19 to 38 µM) | 1 to 8 µg/mL (≈ 2.38 to 19 µM) |
| CCCCC#Cc1ccc(C2=CCN(CCC(C)(C(=O)NO)S(C)(=O)=O)CC2)cc1 (stereo not drawn) [Example 6, 4-(4-(4-(hex-1-yn-1-yl)phenyl)-3,6-dihydropyridin-1(2H)-yl)-N-hydroxy-2-methyl-2-(methylsulfonyl)butanamide] |  |  |  | < 1 µg/mL | 1 to 8 µg/mL (≈ 2.31 to 18.5 µM) | 8 to 16 µg/mL (≈ 18.5 to 37 µM) |
| CN(C)CC#Cc1ccc(C2=CCN(CCC(C)(C(=O)NO)S(C)(=O)=O)CC2)cc1 (stereo not drawn) [Example 7, 4-(4-(4-(3-(dimethylamino)prop-1-yn-1-yl)phenyl)-3,6-dihydropyridin-1(2H)-yl)-N-hydroxy-2-methyl-2-(methylsulfonyl)butanamide] |  |  |  | 1 to 8 µg/mL (≈ 2.31 to 18.5 µM) | 1 to 8 µg/mL (≈ 2.31 to 18.5 µM) | 1 to 8 µg/mL (≈ 2.31 to 18.5 µM) |
| CC(O)C#Cc1ccc(C2=CCN(CCC(C)(C(=O)NO)S(C)(=O)=O)CC2)cc1 (stereo not drawn) [Example 8, N-hydroxy-4-(4-(4-(3-hydroxybut-1-yn-1-yl)phenyl)-3,6-dihydropyridin-1(2H)-yl)-2-methyl-2-(methylsulfonyl)butanamide] |  |  |  | > 16 µg/mL | > 16 µg/mL | > 16 µg/mL |
| CC(CCN1CC=C(c2ccc(C#CC3CCCC3)cc2)CC1)(C(=O)NO)S(C)(=O)=O (stereo not drawn) [Example 9, 4-(4-(4-(cyclopentylethynyl)phenyl)-3,6-dihydropyridin-1(2H)-yl)-N-hydroxy-2-methyl-2-(methylsulfonyl)butanamide] |  |  |  | < 1 µg/mL | 1 to 8 µg/mL (≈ 2.25 to 18 µM) | > 16 µg/mL |
| CC(CCN1CC=C(c2ccc(C#CC3CCCCC3)cc2)CC1)(C(=O)NO)S(C)(=O)=O (stereo not drawn) [Example 10, 4-(4-(4-(cyclohexylethynyl)phenyl)-3,6-dihydropyridin-1(2H)-yl)-N-hydroxy-2-methyl-2-(methylsulfonyl)butanamide] |  |  |  | 1 to 8 µg/mL (≈ 2.18 to 17.4 µM) | 8 to 16 µg/mL (≈ 17.4 to 34.9 µM) | 8 to 16 µg/mL (≈ 17.4 to 34.9 µM) |
| CCCC#Cc1ccc(C2=CCN(CCC(C)(C(=O)NO)S(C)(=O)=O)CC2)cc1 (stereo not drawn) [Example 11, N-hydroxy-2-methyl-2-(methylsulfonyl)-4-(4-(4-(pent-1-yn-1-yl)phenyl)-3,6-dihydropyridin-1(2H)-yl)butanamide] |  |  |  | < 1 µg/mL | 1 to 8 µg/mL (≈ 2.39 to 19.1 µM) | 1 to 8 µg/mL (≈ 2.39 to 19.1 µM) |
| CC(CCN1CC=C(c2ccc(C#CCC3CCCCC3)cc2)CC1)(C(=O)NO)S(C)(=O)=O (stereo not drawn) [Example 12, 4-(4-(4-(3-cyclohexylprop-1-yn-1-yl)phenyl)-3,6-dihydropyridin-1(2H)-yl)-N-hydroxy-2-methyl-2-(methylsulfonyl)butanamide] |  |  |  | 8 to 16 µg/mL (≈ 16.9 to 33.9 µM) | 8 to 16 µg/mL (≈ 16.9 to 33.9 µM) | > 16 µg/mL |
| CC(C)CC#Cc1ccc(C2=CCN(CCC(C)(C(=O)NO)S(C)(=O)=O)CC2)cc1 (stereo not drawn) [Example 13, N-hydroxy-2-methyl-4-(4-(4-(4-methylpent-1-yn-1-yl)phenyl)-3,6-dihydropyridin-1(2H)-yl)-2-(methylsulfonyl)butanamide] |  |  |  | < 1 µg/mL | 1 to 8 µg/mL (≈ 2.31 to 18.5 µM) | 8 to 16 µg/mL (≈ 18.5 to 37 µM) |
| CC(CCN1CC=C(c2ccc(C#CCCCCl)cc2)CC1)(C(=O)NO)S(C)(=O)=O (stereo not drawn) [Example 14, 4-(4-(4-(5-chloropent-1-yn-1-yl)phenyl)-3,6-dihydropyridin-1(2H)-yl)-N-hydroxy-2-methyl-2-(methylsulfonyl)butanamide] |  |  |  | < 1 µg/mL | 1 to 8 µg/mL (≈ 2.21 to 17.7 µM) | 1 to 8 µg/mL (≈ 2.21 to 17.7 µM) |
| CC(CCN1CC=C(c2ccc(C#CCN3CCCC3)cc2)CC1)(C(=O)NO)S(C)(=O)=O (stereo not drawn) [Example 15, N-hydroxy-2-methyl-2-(methylsulfonyl)-4-(4-(4-(3-(pyrrolidin-1-yl)prop-1-yn-1-yl)phenyl)-3,6-dihydropyridin-1(2H)-yl)butanamide] |  |  |  | 1 to 8 µg/mL (≈ 2.18 to 17.4 µM) | 8 to 16 µg/mL (≈ 17.4 to 34.8 µM) | 1 to 8 µg/mL (≈ 2.18 to 17.4 µM) |
| CCN(CC)CC#Cc1ccc(C2=CCN(CCC(C)(C(=O)NO)S(C)(=O)=O)CC2)cc1 (stereo not drawn) [Example 16, 4-(4-(4-(3-(diethylamino)prop-1-yn-1-yl)phenyl)-3,6-dihydropyridin-1(2H)-yl)-N-hydroxy-2-methyl-2-(methylsulfonyl)butanamide] |  |  |  | 1 to 8 µg/mL (≈ 2.17 to 17.3 µM) | 1 to 8 µg/mL (≈ 2.17 to 17.3 µM) | 1 to 8 µg/mL (≈ 2.17 to 17.3 µM) |
| CC(CCN1CC=C(c2ccc(C#CCN3CCC[C@H]3CO)cc2)CC1)(C(=O)NO)S(C)(=O)=O (stereo partly drawn) [Example 17, N-hydroxy-4-(4-(4-(3-((S)-2-(hydroxymethyl)pyrrolidin-1-yl)prop-1-yn-1-yl)phenyl)-3,6-dihydropyridin-1(2H)-yl)-2-methyl-2-(methylsulfonyl)butanamide] |  |  |  | > 16 µg/mL | 8 to 16 µg/mL (≈ 16.3 to 32.7 µM) | 1 to 8 µg/mL (≈ 2.04 to 16.3 µM) |
| CC(CCN1CC=C(c2ccc(C#CCCCO)cc2)CC1)(C(=O)NO)S(C)(=O)=O (stereo not drawn) [Example 18, N-hydroxy-4-(4-(4-(5-hydroxypent-1-yn-1-yl)phenyl)-3,6-dihydropyridin-1(2H)-yl)-2-methyl-2-(methylsulfonyl)butanamide] |  |  |  | < 1 µg/mL | 1 to 8 µg/mL (≈ 2.3 to 18.4 µM) | 1 to 8 µg/mL (≈ 2.3 to 18.4 µM) |
| CC(CCN1CC=C(c2ccc(C#CCCCOS(C)(=O)=O)cc2)CC1)(C(=O)NO)S(C)(=O)=O (stereo not drawn) [Example 19, 5-(4-(1-(4-(hydroxyamino)-3-methyl-3-(methylsulfonyl)-4-oxobutyl)-1,2,3,6-tetrahydropyridin-4-yl)phenyl)pent-4-yn-1-yl methanesulfonate] |  |  |  | < 1 µg/mL | 1 to 8 µg/mL | 1 to 8 µg/mL |
| CN(C)CCCC#Cc1ccc(C2=CCN(CCC(C)(C(=O)NO)S(C)(=O)=O)CC2)cc1 (stereo not drawn) [Example 20, 4-(4-(4-(5-(dimethylamino)pent-1-yn-1-yl)phenyl)-3,6-dihydropyridin-1(2H)-yl)-N-hydroxy-2-methyl-2-(methylsulfonyl)butanamide] |  |  |  | 1 to 8 µg/mL (≈ 2.17 to 17.3 µM) | 8 to 16 µg/mL (≈ 17.3 to 34.7 µM) | 8 to 16 µg/mL (≈ 17.3 to 34.7 µM) |
| CC(CCN1CC=C(c2ccc(C#CCCCN)cc2)CC1)(C(=O)NO)S(C)(=O)=O (stereo not drawn) [Example 21, 4-(4-(4-(5-aminopent-1-yn-1-yl)phenyl)-3,6-dihydropyridin-1(2H)-yl)-N-hydroxy-2-methyl-2-(methylsulfonyl)butanamide] |  |  |  | 8 to 16 µg/mL (≈ 18.5 to 36.9 µM) | > 16 µg/mL | > 16 µg/mL |
| CC(CCN1CC=C(c2ccc(C#CCO)cc2)CC1)(C(=O)NO)S(C)(=O)=O (stereo not drawn) [Example 22, N-hydroxy-4-(4-(4-(3-hydroxyprop-1-yn-1-yl)phenyl)-3,6-dihydropyridin-1(2H)-yl)-2-methyl-2-(methylsulfonyl)butanamide] |  |  |  | 1 to 8 µg/mL (≈ 2.46 to 19.7 µM) | > 16 µg/mL | 1 to 8 µg/mL (≈ 2.46 to 19.7 µM) |
| COCC#Cc1ccc(C2=CCN(CCC(C)(C(=O)NO)S(C)(=O)=O)CC2)cc1 (stereo not drawn) [Example 23, N-hydroxy-4-(4-(4-(3-methoxyprop-1-yn-1-yl)phenyl)-3,6-dihydropyridin-1(2H)-yl)-2-methyl-2-(methylsulfonyl)butanamide] |  |  |  | < 1 µg/mL | 1 to 8 µg/mL (≈ 2.38 to 19 µM) | 1 to 8 µg/mL (≈ 2.38 to 19 µM) |
| CC(CCN1CC=C(c2ccc(C#CCOCCCO)cc2)CC1)(C(=O)NO)S(C)(=O)=O (stereo not drawn) [Example 24, N-hydroxy-4-(4-(4-(3-(3-hydroxypropoxy)prop-1-yn-1-yl)phenyl)-3,6-dihydropyridin-1(2H)-yl)-2-methyl-2-(methylsulfonyl)butanamide] |  |  |  | 1 to 8 µg/mL (≈ 2.15 to 17.2 µM) | 1 to 8 µg/mL (≈ 2.15 to 17.2 µM) | 1 to 8 µg/mL (≈ 2.15 to 17.2 µM) |
| CC(CCN1CC=C(c2ccc(C#CCN3CCOCC3)cc2)CC1)(C(=O)NO)S(C)(=O)=O (stereo not drawn) [Example 25, N-hydroxy-2-methyl-2-(methylsulfonyl)-4-(4-(4-(3-morpholinoprop-1-yn-1-yl)phenyl)-3,6-dihydropyridin-1(2H)-yl)butanamide] |  |  |  | 1 to 8 µg/mL (≈ 2.1 to 16.8 µM) | 1 to 8 µg/mL (≈ 2.1 to 16.8 µM) | 1 to 8 µg/mL (≈ 2.1 to 16.8 µM) |
| CC(CCN1CC=C(c2ccc(C#CCOC(N)=O)cc2)CC1)(C(=O)NO)S(C)(=O)=O (stereo not drawn) [Example 26, 3-(4-(1-(4-(hydroxyamino)-3-methyl-3-(methylsulfonyl)-4-oxobutyl)-1,2,3,6-tetrahydropyridin-4-yl)phenyl)prop-2-yn-1-yl carbamate] |  |  |  | 1 to 8 µg/mL (≈ 2.22 to 17.8 µM) | 8 to 16 µg/mL (≈ 17.8 to 35.6 µM) | 1 to 8 µg/mL (≈ 2.22 to 17.8 µM) |
